Assay results reported in patent US6784167B2, “17-beta-hydroxysteroid dehydrogenase-II inhibitors” (Bayer Pharmaceuticals Corporation, priority 2000, dated 2004).
Where two headings read alike, the source gives them in different places.

Experiments:
17-Beta HSD II Enzyme = target: T1, 17-Beta HSD II Enzyme (Homo sapiens, UniProt P37059); test: Primary assay: inhibition of 17-Beta HSD II enzyme (estradiol/NAD, PMS:MTS colorimetric readout at 490 nm); assay type: biochemical; conditions: Table 7, baculovirus-expressed recombinant HSD II, estradiol substrate
T1 construct: made in house; host or cells: insect cells (baculovirus)
T1 sequence (P37059 1-387): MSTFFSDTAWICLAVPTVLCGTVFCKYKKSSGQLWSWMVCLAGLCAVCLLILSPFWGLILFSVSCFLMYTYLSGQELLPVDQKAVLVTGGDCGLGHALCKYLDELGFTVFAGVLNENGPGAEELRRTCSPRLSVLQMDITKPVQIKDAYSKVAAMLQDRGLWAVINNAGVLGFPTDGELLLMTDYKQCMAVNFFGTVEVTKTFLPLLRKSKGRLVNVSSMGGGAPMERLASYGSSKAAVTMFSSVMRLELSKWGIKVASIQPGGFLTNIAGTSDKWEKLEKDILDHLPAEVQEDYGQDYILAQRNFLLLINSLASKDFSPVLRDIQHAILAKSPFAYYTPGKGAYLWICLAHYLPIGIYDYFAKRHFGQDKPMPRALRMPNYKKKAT
Procedure: HSD II protein purification: The method for purification of baculovirus-expressed HSD II was standardized as follows. The insect cell pellet containing recombinant HSD II was lysed in 2.5 volumes of lysis buffer (40 mM Tris, pH 7.5, 1 mM EDTA, 2 mM DTT, 10 uM NAD) containing 500 uM AEBSF, 10 ug/ml aprotinin, 1 uM pepstatin A, and 100 uM leupeptin. The pellet was nutated for 30 min in this buffer. Subsequently, the pellet was homogenized with 15 strokes using a glass and teflon potter. The volume was doubled with a 2× sucrose/NaCl solution (500 mM sucrose, 300 mM NaCl in lysis buffer). After centrifugation at 10,000×g for 30 min, the supernatant was decanted and stored at −20° C. The pellet was resuspended in 2.5 volumes of lysis buffer containing 250 mM sucrose and 150 mM NaCl. Homogenization was repeated (15 strokes) and the suspension was centrifuged again and the decanted supernatant was stored at −20° C. The pellet was resuspended with 2 times the original pellet volume in lysis buffer containing 150 mM NaCl and 1% Triton X-100. The suspension was nutated for 20 min and then homogenized with 5 strokes. Subsequently, the suspension was centrifuged at 30,000×g for 1 h and supernatant was decanted and poured into a chromatographic column. Sephadex G-25 (fine) was added in small amounts, allowing approximately 15 min after each addition for complete swelling. Sephadex addition was continued until all liquid was absorbed. The protein was eluted with 1 void volume of lysis buffer and eluate monitored at 280 nm optical density. The chromatographic procedure was repeated and an equal volume of glycerol was added to the final eluate.
Primary assay: After titration, the HSD II prep, generated with the standard protocol, was diluted to the appropriate concentration (generally 1/15 dilution). 55 μl of assay buffer (50 mM Hepes, pH 8.0) was added to all wells of a 96 well plate. 5 μl of 5% DMSO were added to wells A1-C1, A2-C2, F1-H1, and F2-H2. A 10 μl aliquot of a 10 mM solution in DMSO of each compound was diluted in 190 μl of assay buffer. The plate with these compound dilutions was then mixed for 15 min on a shaker and a 5 μl aliquot from each well was added to the […]. This was followed by 10 μl of HSD II enzyme ( 1/15 dilution)/estradiol mix in assay buffer containing 1% Triton X-100. The estradiol […] from a 20 mM estradiol DMSO stock solution, which was diluted 1/20 (50 μl/ml) in 50 mM Hepes buffer containing 1% Triton X-100. All wells, except F1-H1 and F2-H2, also received 10 μl of 25 mg/ml NAD (SIGMA) in 100 mM Hepes, pH 9. The blank wells F1-H1 and F2-H2 received 10 μl of NAD buffer. 20 μl of PMS:MTS solution (100 μl PMS into 1800 μl MTS, Promega) was added to all wells. The plate was covered with aluminum foil and incubated at room temperature for 1.5 h. The plate was analyzed at 490 nm on a Hewlett Pachard 8453 spectrophotometer and results were calculated.

[1] = read-out: IC50 values ≧2 μM and <10 μM

With `CN(C)c1ccc(-c2ccc([C@@H](O)[C@H]3[C@@H](c4ccccc4)CC(=O)N3C)s2)cc1F` (racemic) [Example 28] the melting point was 173 °C and the IC50 (17-Beta HSD II Enzyme; [1]) was 2000 to 10000 nM.
With `CN1C(=O)C[C@H](c2ccccc2)[C@@H]1[C@H](O)c1ccc(-c2cccs2)s1` (racemic) [Example 29] the melting point was 152 °C and the IC50 (17-Beta HSD II Enzyme) was < 500 nM.
For `COc1cccc(-c2ccc(C(O)C3C(c4ccccc4)CC(=O)N3C)s2)c1` (racemic) [Example 31], the melting point was 128 °C and the IC50 (17-Beta HSD II Enzyme) was < 500 nM.
For `CN1C(=O)C[C@H](c2ccccc2)[C@@H]1[C@H](O)c1ccc(-c2ccccc2C(F)(F)F)s1` (racemic) [Example 34], the melting point was 192 °C and the IC50 (17-Beta HSD II Enzyme) was < 500 nM.
For `CN1C(=O)C[C@H](c2ccccc2)[C@@H]1[C@H](O)c1ccc(S(=O)(=O)N2CCSCC2)s1` (racemic) [Example 35], the melting point was 197 to 199 °C and the IC50 (17-Beta HSD II Enzyme) was < 500 nM.
For `CN1C(=O)CC(c2ccccc2)C1C(O)c1ccc(S(=O)(=O)N2CCN(c3ccc(F)cc3)CC2)s1` (racemic) [Example 37], the melting point was 167 to 175 °C and the IC50 (17-Beta HSD II Enzyme) was < 500 nM.
With `Cc1sc([C@@H](O)[C@H]2[C@@H](c3ccccc3)CC(=O)N2C)cc1-c1ccccc1` (racemic) [Example 38] the melting point was 78 to 82 °C and the IC50 (17-Beta HSD II Enzyme) was < 500 nM.
For `Cc1cc(-c2ccccc2)c([C@@H](O)[C@H]2[C@@H](c3ccccc3)CC(=O)N2C)s1` (racemic) [Example 43], the melting point was 85 °C and the IC50 (17-Beta HSD II Enzyme) was < 500 nM.
In the case of `CN1C(=O)CC(c2ccccc2)C1C(O)c1ccc(-c2cccc([N+](=O)[O-])c2)s1` (racemic) [Example 44], the melting point is reported as 150 °C and the IC50 (17-Beta HSD II Enzyme) is reported as < 500 nM.
In the case of `Cc1c(C(O)C2C(c3ccccc3)CC(=O)N2C)sc2ccc(F)cc12` (racemic) [Example 53], the melting point is reported as 175 to 177 °C and the IC50 (17-Beta HSD II Enzyme) is reported as < 500 nM.
With `CN1C(=O)C[C@H](c2ccccc2)[C@@H]1[C@H](O)c1csc2ccccc12` (racemic) [Example 54] the melting point was > 210 °C and the IC50 (17-Beta HSD II Enzyme; [1]) was 2000 to 10000 nM.
With `COc1ccc(S(=O)(=O)c2ccc([C@@H](O)[C@H]3[C@@H](c4ccccc4)CC(=O)N3C)s2)cc1` (racemic) [Example 58] the melting point was 203 to 205 °C and the IC50 (17-Beta HSD II Enzyme) was < 500 nM.
With `CN1C(=O)CC(c2ccccc2)C1C(O)c1ccc(S(=O)(=O)c2ccc(Cl)cc2)s1` (racemic) [Example 62] the melting point was 207 to 208 °C and the IC50 (17-Beta HSD II Enzyme) was < 500 nM.
In the case of `CSc1ccc(-c2ccc([C@@H](O)[C@H]3[C@@H](c4ccccc4)CC(=O)N3C)s2)cc1` (racemic) [Example 69], the melting point is reported as 187 °C and the IC50 (17-Beta HSD II Enzyme; [1]) is reported as 2000 to 10000 nM.
In the case of `CN1C(=O)C[C@H](c2ccccc2)[C@@H]1[C@H](O)c1ccc(-c2ccccc2F)s1` (racemic) [Example 71], the melting point is reported as 216 °C and the IC50 (17-Beta HSD II Enzyme) is reported as < 500 nM.
In the case of `Cc1ccc(-c2ccc([C@@H](O)[C@H]3[C@@H](c4ccccc4)CC(=O)N3C)s2)c(F)c1` (racemic) [Example 72], the melting point is reported as 182 °C and the IC50 (17-Beta HSD II Enzyme) is reported as < 500 nM.
In the case of `CN1C(=O)C[C@H](c2ccccc2)[C@@H]1[C@H](O)c1ccc(-c2cccc(NS(C)(=O)=O)c2)s1` (racemic) [Example 73], the melting point is reported as 199 °C and the IC50 (17-Beta HSD II Enzyme) is reported as < 500 nM.
For `CN1C(=O)CC(c2ccccc2)C1C(O)c1ccc(-c2cccnc2)s1` (racemic) [Example 78], the melting point was 210 °C and the IC50 (17-Beta HSD II Enzyme) was < 500 nM.
With `CN1C(=O)C[C@H](c2ccccc2)[C@@H]1[C@H](O)c1ccc(-c2cccnc2)s1` (racemic) [Example 79] the IC50 (17-Beta HSD II Enzyme) was < 500 nM.
For `CN1C(=O)C[C@H](c2ccccc2F)[C@@H]1[C@H](O)c1ccc(-c2ccccc2)s1` (racemic) [Example 83], the melting point was 219 to 220 °C (dec.) and the IC50 (17-Beta HSD II Enzyme) was < 500 nM.
`CN1C(=S)C[C@H](c2ccccc2)[C@@H]1[C@H](O)c1cccs1` (relative stereo) [Example 1, (±)-(4R*,5R*)-5-((1S*)-hydroxy-2-thienylmethyl)-1-methyl-4-phenylpyrrolidin-2-thione] showed an IC50 (17-Beta HSD II Enzyme; [1]) of 2000 to 10000 nM.
With `CN1C(=O)C[C@H](c2ccccc2)[C@@H]1COc1cccc(Cl)c1` (relative stereo) [Example 2, (±)-(4R*,5R*)-5-[(3-chlorophenoxy)methyl]-1-methyl-4-phenylpyrrolidin-2-one] the IC50 (17-Beta HSD II Enzyme; [1]) was 2000 to 10000 nM.
For `CN1C(=O)C[C@H](c2ccccc2)[C@@H]1[C@H](O)C#Cc1ccccc1` (relative stereo) [Example 8, (±)-5-((1R*)-1-hydroxy-3-phenylprop-2-ynyl)(4R*,5R*)-1-methyl-4-phenylpyrrolidin-2-one], the IC50 (17-Beta HSD II Enzyme) was < 500 nM.
With `CSC(c1cc2ccccc2[nH]1)[C@H]1[C@@H](c2ccccc2)CC(=O)N1C` (relative stereo) [Example 10] the IC50 (17-Beta HSD II Enzyme) was < 500 nM.
With `CN(C)c1ccc([C@H]2CC(=O)N(C)[C@H]2[C@H](O)c2ccc(-c3ccccc3)s2)cc1` (relative stereo) [Example 19, (±)-(4R*,5R*)-5-[(1S*)-hydroxy(5-phenyl(2-thienyl))methyl]-1-methyl-4-[4-(dimethylamino)phenyl]pyrrolidin-2-one] the IC50 (17-Beta HSD II Enzyme; [1]) was 2000 to 10000 nM.
With `CN1C(=O)C[C@H](c2ccc(O)cc2)[C@@H]1[C@H](O)c1ccc(-c2ccccc2)s1` (relative stereo) [Example 20, (±)-(4R*,5R*)-5-[(1S*)-hydroxy(5-phenyl(2-thienyl))methyl]-1-methyl-4-[4-hydroxyphenyl]pyrrolidin-2-one] the IC50 (17-Beta HSD II Enzyme) was < 500 nM.
`CN1C(=O)C[C@H](c2ccc(CO)cc2)[C@@H]1[C@H](O)c1ccc(-c2ccccc2)s1` (relative stereo) [Example 21, (±)-(4R*,5R*)-5-[(1S*)hydroxy(5-phenyl(2-thienyl))methyl]-4-[4-(hydroxymethyl)phenyl]-1-methylpyrrolidin-2-one] gave an IC50 (17-Beta HSD II Enzyme; [1]) of 2000 to 10000 nM.
With `CN1C(=O)C[C@H](c2ccc(-c3ccc(F)cc3)cc2)[C@@H]1[C@H](O)c1ccc(-c2ccccc2)s1` (relative stereo) [Example 22, (±)-(4R*,5R*)-5-[(1S*)hydroxy(5-phenyl(2-thienyl))-methyl]-4-[4-(4-fluorophenyl)phenyl]-1-methylpyrrolidin-2-one] the IC50 (17-Beta HSD II Enzyme; [1]) was 2000 to 10000 nM.
With `CN1C(=O)C[C@H](c2ccccc2)[C@@H]1[C@H](O)c1ccc(-c2cccc(NC(=O)Nc3ccc(F)cc3)c2)s1` (relative stereo) [Example 25, (±)-(4R*,5R*)-5-{(1S*)[5-(3-{[(4-fluorophenyl)amino]carbonylamino}phenyl)(2-thienyl)]hydroxymethyl}-1-methyl-4-phenylpyrrolidin-2-one] the IC50 (17-Beta HSD II Enzyme; [1]) was 2000 to 10000 nM.
With `CN1C(=O)C[C@H](c2ccccc2)[C@@H]1[C@@H](O)c1ccc(-c2ccccc2)s1` [Example 11, (4R,5R)-5-[(1R)-hydroxy(5-phenyl(2-thienyl))methyl]-1-methyl-4-phenylpyrrolidin-2-one] the IC50 (17-Beta HSD II Enzyme) was < 500 nM.
With `CN1C(=O)CC(c2ccccc2)C1C(O)c1ccc(-c2c(F)cccc2F)s1` (centres unmarked) [Example 30] the IC50 (17-Beta HSD II Enzyme) was < 500 nM.
For `CN1C(=O)CC(c2ccccc2)C1C(O)c1ccc(-c2ccc(Cl)cc2)s1` (centres unmarked) [Example 51], the IC50 (17-Beta HSD II Enzyme) was < 500 nM.
For `CN1C(=O)CC(c2ccccc2)C1C(O)C#Cc1ccccc1F` (centres unmarked) [Example 127], the IC50 (17-Beta HSD II Enzyme) was < 500 nM.
For `CN1C(=O)C[C@H](c2ccccc2)[C@@H]1[C@H](O)c1ccc(-c2ccc(F)cc2)s1` [Example 146], the IC50 (17-Beta HSD II Enzyme) was < 500 nM.
With `CN1C(=O)C[C@H](c2ccccc2)[C@@H]1[C@H](O)c1ccc(-c2ccccn2)s1` [Example 147] the IC50 (17-Beta HSD II Enzyme) was < 500 nM.
With `CN1C(=O)C[C@H](c2ccccc2)[C@@H]1[C@H](O)c1ccc(-c2cccnc2)s1` [Example 148] the IC50 (17-Beta HSD II Enzyme) was < 500 nM.
With `CN1C(=O)C[C@H](c2ccccc2)[C@@H]1[C@H](O)c1ccc(S(=O)(=O)c2ccccc2)s1` [Example 149] the IC50 (17-Beta HSD II Enzyme) was < 500 nM.
